Here are results for 27 molecules from patent publication US10918642B2, “N-(substituted-phenyl)-sulfonamide derivatives as kinase inhibitors” (Nerviano Medical Sciences S.R.L., priority 2016, dated 2021).

PERK recombinant enzyme (cytoplasmic domain corresponding to residues 540-1115), sequence (Q9NZJ5 540-1115): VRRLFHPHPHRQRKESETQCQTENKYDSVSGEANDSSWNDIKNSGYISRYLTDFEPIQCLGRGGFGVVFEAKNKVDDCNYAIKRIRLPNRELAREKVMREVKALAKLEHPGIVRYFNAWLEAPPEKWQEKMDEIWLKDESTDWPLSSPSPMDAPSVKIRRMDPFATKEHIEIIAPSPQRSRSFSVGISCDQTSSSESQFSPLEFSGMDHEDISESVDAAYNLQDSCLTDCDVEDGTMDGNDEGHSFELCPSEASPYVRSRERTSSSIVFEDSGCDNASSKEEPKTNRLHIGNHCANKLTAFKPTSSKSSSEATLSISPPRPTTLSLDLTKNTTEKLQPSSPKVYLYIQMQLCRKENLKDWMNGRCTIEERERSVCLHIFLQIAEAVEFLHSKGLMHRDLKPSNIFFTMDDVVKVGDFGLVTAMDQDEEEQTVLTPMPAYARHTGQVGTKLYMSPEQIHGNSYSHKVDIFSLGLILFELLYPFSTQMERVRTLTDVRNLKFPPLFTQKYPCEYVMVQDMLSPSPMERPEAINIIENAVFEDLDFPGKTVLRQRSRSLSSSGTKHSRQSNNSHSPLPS

The assay concerns the target PERK recombinant enzyme (cytoplasmic domain corresponding to residues 540-1115) (Homo sapiens (Human), UniProt Q9NZJ5). The assay is described as follows: PERK enzyme assay, Method 1: ADP-Glo Kinase Assay (quantification of ADP formed). Type of assay: biochemical. The conditions noted are these: 52 microM ATP, 8 nM PERK, 300 microM eIF2alpha peptide substrate, 60 minutes at room temperature. The method, then: The biochemical activity of compounds was determined by incubation with PERK recombinant enzyme (cytoplasmic domain corresponding to residues 540-1115) and elF2alpha peptide substrate (Aminoacid sequence: LLSELSRRRIRSINK—SEQ ID Nr: 1; purchased from American Peptide Company, product #341923). This was followed by:
Method 1: Quantification of the ADP Tormed from the Kinase Reaction by ADP-Glo™ Kinase Assay (Promega Cat. 9102). Utra Pure ATP was Included into ADP-Glo™ Kinase Assay kit.
Compounds were 3-fold serially diluted in order to obtain from 3.333 to 0.000169 microM final concentration, then incubated for 60 minutes at room temperature in the presence of ATP, substrate and enzyme in a final volume of 15 microL of kinase buffer in 384-well plates (Perkin Elmer cat. #6007290).
The final concentration of the different reagents is 52 microM ATP, 8 nM PERK, 300 microM substrate, 50 mM Hepes pH 7.5, 3 mM MgCl2, 1 mM DTT, 3 microM Na3VO4, 0.2 mg/ml BSA, 1% DMSO.
After 60 minutes, an equal volume (15 microL) of ADP-Glo™ Reagent was added to each well to terminate the kinase reaction and deplete the remaining ATP. After 40 minutes, 30 microL of Kinase Detection Reagent is added, which simultaneously converts ADP to ATP and allows the newly synthesized ATP to be measured using a coupled luciferase/luciferin reaction. After further 40 minutes luminescence was read by ViewLux Instrument (Perkin Elmer). The data are analyzed by GraphPad Prism software which provides sigmoidal fittings of the curves for IC50 determination using a 4 parameter logistic equation: y=bottom+(top−bottom)/(1+10^((log IC50−x)*slope))
where x is the logarithm of the inhibitor concentration, y is the response; y starts at bottom and goes to top with a sigmoid shape.
For orientation: ADP-Glo first removes unused ATP, then detects ADP through luciferase.
As a reminder, the IC50 is the midpoint of a concentration-inhibition curve. `Cn1cc(-c2cccc(NS(=O)(=O)c3ccc(Cl)s3)c2F)c2c(N)ncnc21` [cmpd 47, 5-Chloro-thiophene-2-sulfonic acid [3-(4-amino-7-methyl-7H-pyrrolo[2,3-d]pyrimidin-5-yl)-2-fluoro-phenyl]-amide]: the IC50 is 15.8 to 50.1 nM.
The same measure, in the same setting: the same measure for `COc1ccc(S(=O)(=O)Nc2cccc(-c3cn(C)c4ncnc(N)c34)c2F)cc1` [cmpd 14, N-[3-(4-Amino-7-methyl-7H-pyrrolo[2,3-d]pyrimidin-5-yl)-2-fluoro-phenyl]-4-methoxy-benzenesulfonamide]: 50.1 to 158 nM; for `Cn1cc(-c2cccc(NS(=O)(=O)c3ccc(C(F)(F)F)cc3)c2F)c2c(N)ncnc21` [cmpd 15, N-[3-(4-Amino-7-methyl-7H-pyrrolo[2,3-d]pyrimidin-5-yl)-2-fluoro-phenyl]-4-trifluoromethyl-benzenesulfonamide]: 50.1 to 158 nM.
Consider `COc1cc(F)c(S(=O)(=O)Nc2cccc(-c3nn(C)c4ncnc(N)c34)c2F)cc1Cl` [cmpd 9, N-[3-(4-Amino-1-methyl-1H-pyrazolo[3,4-d]pyrimidin-3-yl)-2-fluoro-phenyl]-5-chloro-2-fluoro-4-methoxy-benzenesulfonamide], for which the pIC50 entry is recorded as “AA (7.8 ≤ pIC50)”.
Take `COc1ccc(S(=O)(=O)Nc2cccc(-c3cn(C)c4ncnc(N)c34)c2F)cc1C` [cmpd 12, N-[3-(4-Amino-7-methyl-7H-pyrrolo[2,3-d]pyrimidin-5-yl)-2-fluoro-phenyl]-4-methoxy-3-methyl-benzenesulfonamide]: the half-maximal inhibitory concentration (IC50) is 15.8 to 50.1 nM.
Take `Cc1cc(S(=O)(=O)Nc2cccc(-c3cn(C)c4ncnc(N)c34)c2F)ccc1Br` [cmpd 52, N-[3-(4-Amino-7-methyl-7H-pyrrolo[2,3-d]pyrimidin-5-yl)-2-fluoro-phenyl]-4-bromo-3-methyl-benzenesulfonamide]: the pIC50 result was “AA (7.8 ≤ pIC50)”.
For the molecule `CCN1CCC(n2cc(-c3cccc(NS(=O)(=O)c4ccc(OC)c(C)c4)c3F)c3c(N)ncnc32)CC1` [cmpd 41, N-{3-[4-Amino-7-(1-ethyl-piperidin-4-yl)-7H-pyrrolo[2,3-d]pyrimidin-5-yl]-2-fluoro-phenyl}-4-methoxy-3-methyl-benzenesulfonamide], the IC50 is 15.8 to 50.1 nM.
Still for that read-out and setting: next, `COc1ccc(S(=O)(=O)Nc2cccc(-c3cn(C)c4ncnc(N)c34)c2F)cc1C#N` [cmpd 86, N-[3-(4-Amino-7-methyl-7H-pyrrolo[2,3-d]pyrimidin-5-yl)-2-fluoro-phenyl]-3-cyano-4-methoxy-benzenesulfonamide]: 15.8 to 50.1 nM.
For `COc1ccc(S(=O)(=O)Nc2cccc(-c3cn(C4CCN(C(C)C)CC4)c4ncnc(N)c34)c2F)cc1Cl` [cmpd 6, N-{3-[4-Amino-7-(1-isopropyl-piperidin-4-yl)-7H-pyrrolo[2,3-d]pyrimidin-5-yl]-2-fluoro-phenyl}-3-chloro-4-methoxy-benzenesulfonamide], the pIC50 entry is reported as “AA (7.8 ≤ pIC50)”.
For the molecule `COc1ccc(S(=O)(=O)Nc2cccc(-c3cn(C)c4ncnc(N)c34)c2F)cn1` [cmpd 81, 6-Methoxy-pyridine-3-sulfonic acid [3-(4-amino-7-methyl-7H-pyrrolo[2,3-d]pyrimidin-5-yl)-2-fluoro-phenyl]-amide], the IC50 was 50.1 to 158 nM.
Take `CN1CCOc2cc(S(=O)(=O)Nc3cccc(-c4cn(C)c5ncnc(N)c45)c3F)ccc21` [cmpd 18, 4-Methyl-3,4-dihydro-2H-benzo[1,4]oxazine-7-sulfonic acid [3-(4-amino-7-methyl-7H-pyrrolo[2,3-d]pyrimidin-5-yl)-2-fluoro-phenyl]-amide]: the concentration for half-maximal inhibition (IC50) was 50.1 to 158 nM.
Consider `Cn1cc(-c2cccc(NS(=O)(=O)c3cccc(Cl)c3)c2F)c2c(N)ncnc21` [cmpd 13, N-[3-(4-Amino-7-methyl-7H-pyrrolo[2,3-d]pyrimidin-5-yl)-2-fluoro-phenyl]-3-chloro-benzenesulfonamide], for which the pIC50 result is reported as “AA (7.8 ≤ pIC50)”.
As to `Cn1cc(-c2cccc(NS(=O)(=O)c3cc(C(F)(F)F)cc(C(F)(F)F)c3)c2F)c2c(N)ncnc21` [cmpd 49, N-[3-(4-Amino-7-methyl-7H-pyrrolo[2,3-d]pyrimidin-5-yl)-2-fluoro-phenyl]-3,5-bis-trifluoromethyl-benzenesulfonamide], the IC50 was 50.1 to 158 nM.
For `COc1cc(F)c(S(=O)(=O)Nc2cccc(-c3cn(C)c4ncnc(N)c34)c2F)cc1Cl` [cmpd 24, N-[3-(4-Amino-7-methyl-7H-pyrrolo[2,3-d]pyrimidin-5-yl)-2-fluoro-phenyl]-5-chloro-2-fluoro-4-methoxy-benzenesulfonamide], the pIC50 result is reported as “AA (7.8 ≤ pIC50)”.
Take `COc1ccc(S(=O)(=O)Nc2cccc(-c3nn(C)c4ncnc(N)c34)c2F)cc1C` [cmpd 34, N-[3-(4-Amino-1-methyl-1H-pyrazolo[3,4-d]pyrimidin-3-yl)-2-fluoro-phenyl]-4-methoxy-3-methyl-benzenesulfonamide]: the IC50 was 15.8 to 50.1 nM.
As to `Cn1cc(-c2cccc(NS(=O)(=O)c3c(F)cccc3F)c2F)c2c(N)ncnc21` [cmpd 23, N-[3-(4-Amino-7-methyl-7H-pyrrolo[2,3-d]pyrimidin-5-yl)-2-fluoro-phenyl]-2,6-difluoro-benzenesulfonamide], the IC50 was 50.1 to 158 nM.
`Cc1cc(S(=O)(=O)Nc2cccc(-c3cn(C)c4ncnc(N)c34)c2F)ccc1OC(C)C` [cmpd 30, N-[3-(4-Amino-7-methyl-7H-pyrrolo[2,3-d]pyrimidin-5-yl)-2-fluoro-phenyl]-4-isopropoxy-3-methyl-benzenesulfonamide]: the pIC50 entry was “C (pIC50 < 6.8)”.
Take `COc1ccc(S(=O)(=O)Nc2cccc(-c3cn(C4CCNCC4)c4ncnc(N)c34)c2F)cc1C` [cmpd 64, N-[3-(4-Amino-7-piperidin-4-yl-7H-pyrrolo[2,3-d]pyrimidin-5-yl)-2-fluoro-phenyl]-4-methoxy-3-methyl-benzenesulfonamide]: the half-maximal inhibitory concentration (IC50) is 15.8 to 50.1 nM.
`COc1ccc(S(=O)(=O)Nc2cccc(-c3cn(C(C)C)c4ncnc(N)c34)c2F)cc1Cl` [cmpd 2, N-[3-(4-Amino-7-isopropyl-7H-pyrrolo[2,3-d]pyrimidin-5-yl)-2-fluoro-phenyl]-3-chloro-4-methoxy-benzenesulfonamide]: the pIC50 result is given as “AA (7.8 ≤ pIC50)”.
On to `Cn1cc(-c2cccc(NS(=O)(=O)c3ccc(Br)cc3F)c2F)c2c(N)ncnc21` [cmpd 22, N-[3-(4-Amino-7-methyl-7H-pyrrolo[2,3-d]pyrimidin-5-yl)-2-fluoro-phenyl]-4-bromo-2-fluoro-benzenesulfonamide], for which the half-maximal inhibitory concentration (IC50) was 15.8 to 50.1 nM.
For the molecule `Cn1cc(-c2cccc(NS(=O)(=O)c3ccc(Cl)c(Cl)c3)c2F)c2c(N)ncnc21` [cmpd 25, N-[3-(4-Amino-7-methyl-7H-pyrrolo[2,3-d]pyrimidin-5-yl)-2-fluoro-phenyl]-3,4-dichloro-benzenesulfonamide], the IC50 was 15.8 to 50.1 nM.
Still for that read-out and setting: next, `Cn1cc(-c2cccc(NS(=O)(=O)c3ccc(Cl)cc3F)c2F)c2c(N)ncnc21` [cmpd 85, N-[3-(4-Amino-7-methyl-7H-pyrrolo[2,3-d]pyrimidin-5-yl)-2-fluoro-phenyl]-4-chloro-2-fluoro-benzenesulfonamide]: 15.8 to 50.1 nM.
Turning to `COc1cc(F)c(S(=O)(=O)Nc2cccc(-c3cn(C4CCN(C)CC4)c4ncnc(N)c34)c2F)cc1Cl` [cmpd 3, N-{3-[4-Amino-7-(1-methyl-piperidin-4-yl)-7H-pyrrolo[2,3-d]pyrimidin-5-yl]-2-fluoro-phenyl}-5-chloro-2-fluoro-4-methoxy-benzenesulfonamide], the pIC50 result is “AA (7.8 ≤ pIC50)”.
Turning to `COc1ccc(S(=O)(=O)Nc2cccc(-c3cn(C4CCOCC4)c4ncnc(N)c34)c2F)cc1C` [cmpd 36, N-{3-[4-Amino-7-(tetrahydro-pyran-4-yl)-7H-pyrrolo[2,3-d]pyrimidin-5-yl]-2-fluoro-phenyl}-4-methoxy-3-methyl-benzenesulfonamide], the IC50 is 15.8 to 50.1 nM.
Same read-out and setting: next, `COc1ccc(S(=O)(=O)Nc2cccc(-c3cn(C4CCN(C5CC5)CC4)c4ncnc(N)c34)c2F)cc1C` [cmpd 39, N-{3-[4-Amino-7-(1-cyclopropyl-piperidin-4-yl)-7H-pyrrolo[2,3-d]pyrimidin-5-yl]-2-fluoro-phenyl}-4-methoxy-3-methyl-benzenesulfonamide]: 15.8 to 50.1 nM; `Cn1cc(-c2cccc(NS(=O)(=O)c3cc(Cl)cc(Cl)c3)c2F)c2c(N)ncnc21` [cmpd 26, N-[2-(4-Amino-7-methyl-7H-pyrrolo[2,3-d]pyrimidin-5-yl)-2-fluoro-phenyl]-3,5-dichloro-benzenesulfonamide]: 15.8 to 50.1 nM.
For the molecule `COc1ccc(S(=O)(=O)Nc2cccc(-c3cn(C4CCOCC4)c4ncnc(N)c34)c2F)cc1Cl` [cmpd 37, N-{3-[4-Amino-7-(tetrahydro-pyran-4-yl)-7H-pyrrolo[2,3-d]pyrimidin-5-yl]-2-fluoro-phenyl}-3-chloro-4-methoxy-benzenesulfonamide], the IC50 was 15.8 to 50.1 nM.
